# Reference: US20100035755A1, “METHOD OF CONTROLLING WEEDS IN A TURF GRASS BY USING SULFONYLUREA COMPOUNDS” (Moghu Research Center Ltd., priority 2008, published 2010)
# Experiments:
# Bentgrass = experiment: Turf grass selectivity, greenhouse pot test; assay type: in vivo, Agrostris palustris
# Source text: Turf mats of Zoysia grass, bentgrass, Kentucky bluegrass, or perennial rye grass known as cool season turfgrass or western grass were purchased and cut into a piece having 10 cm×20 cm size. Then, each piece was transplanted in a rectangular plastic pot (surface area of 300 cm^2) in which sandy loam and mixed top soil (Boo-Nong Top Soil No. 3, for horticultural use) are filled in 1:1 ratio. After the transplantation, the grasses were cut once a week to maintain the blade height at 0.5-1.0 cm and cultivated for one month in a green house of which temperature was kept at 25˜30° C. for daytime and 15˜25° C. for nighttime, respectively. Then, the ‘test chemical’ of the above Examples 1 and 2 or ‘control chemical’ was applied thereto in an amount of 400, 200, 100, 50, 25, 12, 6, 3 g ai/ha. As a “control chemical”, pyrazolsulfuron ethyl wettable agent (manufactured by Dongbu Fine Chemicals; herein after, referred to as ‘control chemical No. 1’) and flazasulfuron (manufactured by Dongbu HiTek; herein after, referred to as ‘control chemical No. 2’), both sulfonylurea herbicides for a turf grass, were used. Application was carried out by using a track sprayer (R&D Sprayer, USA) equipped with Teejet 8002 nozzle (Spraying Systems Co., USA), and the application amount was adjusted to 2,000 L/ha, which is a typical application amount for a golf course in Korea. Application solution was prepared by diluting the “test chemical” or the “control chemical” with tap water. […] The test was repeated three times in a random arrangement and the results are given in average value of each test (see Table 2 below).
# Cyperus amuricus = experiment: Weed spectrum, greenhouse pot test; assay type: in vivo; settings: two weeks after application
# Source text: (§1) To a rectangular plastic pot (surface area of 300 cm^2) in which sandy loam and mixed top soil (Boo-Nong Top Soil No. 3, for horticultural use) are filled in 1:1 ratio, eight different kinds of weed seeds including Poa annua and Digitaria sanguinalis as poaceae weed, Cyperus amuricus as cyperaceae weeds and Trifolium repens, Kummerowia striata, fleabane, Veronica officinalis and Portulaca oleracea as broadleaf weeds were sewn (50 to 100 seeds per each weed). These weeds are representative examples of the weeds which typically thrive in a turf grass field.
# (§2) The pot was kept in a greenhouse which was maintained at 25˜30° C. for daytime and 15˜25° C. for nighttime, respectively, and irrigation was carried out regularly. Fourteen days after seeding, when the turf grass and the weeds reached approximately at three-leaf stage, the weed seeds were again sewn in separate two pots or “Test chemical” and “Control chemical” were applied in the same manner as the method described above. In this regard, when plants were cultivated for two weeks and then the chemical application was carried out, it is designated as “post-emergence” treatment. On the other than, when the seeding was carried right before the chemical application, it is designated as “pre-emergence” treatment. Preparation of a chemical solution, application method, etc. are the same as above described for evaluation of turf grass selectivity. Two weeks after the chemical application, efficacy of the chemicals for each type of the weeds was evaluated (visual evaluation) based on 0 to 100 scale (i.e., 0 indicates no efficacy and 100 indicates complete weed control).
# Digitaria sanguinalis = experiment: Weed spectrum, greenhouse pot test; assay type: in vivo; settings: two weeks after application
# Source text: as §1, §2
# Kummerowia striata = experiment: Weed spectrum, greenhouse pot test; assay type: in vivo; settings: two weeks after application
# Source text: as §1, §2
# Poa annua = experiment: Weed spectrum, greenhouse pot test; assay type: in vivo; settings: two weeks after application
# Source text: as §1, §2
# Portulaca oleracea = experiment: Weed spectrum, greenhouse pot test; assay type: in vivo; settings: two weeks after application
# Source text: as §1, §2
# Trifolium repens = experiment: Weed spectrum, greenhouse pot test; assay type: in vivo; settings: two weeks after application
# Source text: as §1, §2
# Veronica officinalis = experiment: Weed spectrum, greenhouse pot test; assay type: in vivo; settings: two weeks after application
# Source text: as §1, §2
# Dandelion = experiment: Weed spectrum, greenhouse pot test; assay type: in vivo; settings: two weeks after application
smiles,measurement,setting,value
Cc1cc(C)nc(NC(=O)NS(=O)(=O)c2ccccc2C(O)C(C)F)n1 (centres unmarked) [Example 1],phytotoxicity (visual assessment 0-10),"Bentgrass; 3 g ai/ha, 2 weeks",0
same,phytotoxicity (visual assessment 0-10),"Bentgrass; 3 g ai/ha, 4 weeks",0
same,phytotoxicity (visual assessment 0-10),"Bentgrass; 6 g ai/ha, 2 weeks",0
same,phytotoxicity (visual assessment 0-10),"Bentgrass; 6 g ai/ha, 4 weeks",0
same,phytotoxicity (visual assessment 0-10),"Bentgrass; 12 g ai/ha, 2 weeks",0
same,phytotoxicity (visual assessment 0-10),"Bentgrass; 12 g ai/ha, 4 weeks",0
same,phytotoxicity (visual assessment 0-10),"Bentgrass; 25 g ai/ha, 2 weeks",0
same,phytotoxicity (visual assessment 0-10),"Bentgrass; 25 g ai/ha, 4 weeks",0
same,phytotoxicity (visual assessment 0-10),"Bentgrass; 50 g ai/ha, 2 weeks",0
same,phytotoxicity (visual assessment 0-10),"Bentgrass; 50 g ai/ha, 4 weeks",0
same,phytotoxicity (visual assessment 0-10),"Bentgrass; 100 g ai/ha, 2 weeks",1
same,phytotoxicity (visual assessment 0-10),"Bentgrass; 100 g ai/ha, 4 weeks",0
same,phytotoxicity (visual assessment 0-10),"Bentgrass; 200 g ai/ha, 2 weeks",2
same,phytotoxicity (visual assessment 0-10),"Bentgrass; 200 g ai/ha, 4 weeks",1
same,phytotoxicity (visual assessment 0-10),"Bentgrass; 400 g ai/ha, 2 weeks",3
same,phytotoxicity (visual assessment 0-10),"Bentgrass; 400 g ai/ha, 4 weeks",2
same,efficacy (0-100 scale),"Cyperus amuricus; Post-emergence, 12 g ai/ha",90
same,efficacy (0-100 scale),"Cyperus amuricus; Post-emergence, 25 g ai/ha",95
same,efficacy (0-100 scale),"Cyperus amuricus; Post-emergence, 50 g ai/ha",100
same,efficacy (0-100 scale),"Cyperus amuricus; Post-emergence, 100 g ai/ha",100
same,efficacy (0-100 scale),"Cyperus amuricus; Pre-emergence, 12 g ai/ha",90
same,efficacy (0-100 scale),"Cyperus amuricus; Pre-emergence, 25 g ai/ha",95
same,efficacy (0-100 scale),"Cyperus amuricus; Pre-emergence, 50 g ai/ha",100
same,efficacy (0-100 scale),"Cyperus amuricus; Pre-emergence, 100 g ai/ha",100
same,efficacy (0-100 scale),"Digitaria sanguinalis; Post-emergence, 12 g ai/ha",60
same,efficacy (0-100 scale),"Digitaria sanguinalis; Post-emergence, 25 g ai/ha",70
same,efficacy (0-100 scale),"Digitaria sanguinalis; Post-emergence, 50 g ai/ha",90
same,efficacy (0-100 scale),"Digitaria sanguinalis; Post-emergence, 100 g ai/ha",100
same,efficacy (0-100 scale),"Digitaria sanguinalis; Pre-emergence, 12 g ai/ha",60
same,efficacy (0-100 scale),"Digitaria sanguinalis; Pre-emergence, 25 g ai/ha",85
same,efficacy (0-100 scale),"Digitaria sanguinalis; Pre-emergence, 50 g ai/ha",100
same,efficacy (0-100 scale),"Digitaria sanguinalis; Pre-emergence, 100 g ai/ha",100
same,efficacy (0-100 scale),"Kummerowia striata; Post-emergence, 12 g ai/ha",70
same,efficacy (0-100 scale),"Kummerowia striata; Post-emergence, 25 g ai/ha",70
same,efficacy (0-100 scale),"Kummerowia striata; Post-emergence, 50 g ai/ha",100
same,efficacy (0-100 scale),"Kummerowia striata; Post-emergence, 100 g ai/ha",100
same,efficacy (0-100 scale),"Kummerowia striata; Pre-emergence, 12 g ai/ha",70
same,efficacy (0-100 scale),"Kummerowia striata; Pre-emergence, 25 g ai/ha",90
same,efficacy (0-100 scale),"Kummerowia striata; Pre-emergence, 50 g ai/ha",90
same,efficacy (0-100 scale),"Kummerowia striata; Pre-emergence, 100 g ai/ha",100
same,efficacy (0-100 scale),"Poa annua; Post-emergence, 12 g ai/ha",10
same,efficacy (0-100 scale),"Poa annua; Post-emergence, 25 g ai/ha",30
same,efficacy (0-100 scale),"Poa annua; Post-emergence, 50 g ai/ha",50
same,efficacy (0-100 scale),"Poa annua; Post-emergence, 100 g ai/ha",70
same,efficacy (0-100 scale),"Poa annua; Pre-emergence, 12 g ai/ha",50
same,efficacy (0-100 scale),"Poa annua; Pre-emergence, 25 g ai/ha",60
same,efficacy (0-100 scale),"Poa annua; Pre-emergence, 50 g ai/ha",70
same,efficacy (0-100 scale),"Poa annua; Pre-emergence, 100 g ai/ha",80
same,efficacy (0-100 scale),"Portulaca oleracea; Post-emergence, 12 g ai/ha",70
same,efficacy (0-100 scale),"Portulaca oleracea; Post-emergence, 25 g ai/ha",90
same,efficacy (0-100 scale),"Portulaca oleracea; Post-emergence, 50 g ai/ha",100
same,efficacy (0-100 scale),"Portulaca oleracea; Post-emergence, 100 g ai/ha",100
same,efficacy (0-100 scale),"Portulaca oleracea; Pre-emergence, 12 g ai/ha",90
same,efficacy (0-100 scale),"Portulaca oleracea; Pre-emergence, 25 g ai/ha",90
same,efficacy (0-100 scale),"Portulaca oleracea; Pre-emergence, 50 g ai/ha",100
same,efficacy (0-100 scale),"Portulaca oleracea; Pre-emergence, 100 g ai/ha",100
same,efficacy (0-100 scale),"Trifolium repens; Post-emergence, 12 g ai/ha",40
same,efficacy (0-100 scale),"Trifolium repens; Post-emergence, 25 g ai/ha",50
same,efficacy (0-100 scale),"Trifolium repens; Post-emergence, 50 g ai/ha",60
same,efficacy (0-100 scale),"Trifolium repens; Post-emergence, 100 g ai/ha",60
same,efficacy (0-100 scale),"Trifolium repens; Pre-emergence, 12 g ai/ha",30
same,efficacy (0-100 scale),"Trifolium repens; Pre-emergence, 25 g ai/ha",50
same,efficacy (0-100 scale),"Trifolium repens; Pre-emergence, 50 g ai/ha",70
same,efficacy (0-100 scale),"Trifolium repens; Pre-emergence, 100 g ai/ha",70
same,efficacy (0-100 scale),"Veronica officinalis; Post-emergence, 12 g ai/ha",20
same,efficacy (0-100 scale),"Veronica officinalis; Post-emergence, 25 g ai/ha",20
same,efficacy (0-100 scale),"Veronica officinalis; Post-emergence, 50 g ai/ha",20
same,efficacy (0-100 scale),"Veronica officinalis; Post-emergence, 100 g ai/ha",20
same,efficacy (0-100 scale),"Veronica officinalis; Pre-emergence, 12 g ai/ha",30
same,efficacy (0-100 scale),"Veronica officinalis; Pre-emergence, 25 g ai/ha",30
same,efficacy (0-100 scale),"Veronica officinalis; Pre-emergence, 50 g ai/ha",40
same,efficacy (0-100 scale),"Veronica officinalis; Pre-emergence, 100 g ai/ha",50
same,efficacy (0-100 scale),"Dandelion; Post-emergence, 12 g ai/ha",90
same,efficacy (0-100 scale),"Dandelion; Post-emergence, 25 g ai/ha",90
same,efficacy (0-100 scale),"Dandelion; Post-emergence, 50 g ai/ha",100
same,efficacy (0-100 scale),"Dandelion; Post-emergence, 100 g ai/ha",100
same,efficacy (0-100 scale),"Dandelion; Pre-emergence, 12 g ai/ha",90
same,efficacy (0-100 scale),"Dandelion; Pre-emergence, 25 g ai/ha",90
same,efficacy (0-100 scale),"Dandelion; Pre-emergence, 50 g ai/ha",100
same,efficacy (0-100 scale),"Dandelion; Pre-emergence, 100 g ai/ha",100
